According to ChEMBL document CHEMBL1136164, “Carbonic anhydrase inhibitors: X-ray crystallographic structure of the adduct of human isozyme II with a bis-sulfonamide-two heads are better than one?” (Bioorg Med Chem Lett, 2003):

Key:
Oryctolagus cuniculus [1] = species on record: Oryctolagus cuniculus; experiment: Prolonged IOP lowering by the compound in glaucomatous rabbit for 5 to 6 hours; type: functional
Oryctolagus cuniculus [2] = species on record: Oryctolagus cuniculus; experiment: Prolonged IOP lowering by the compound in glaucomatous rabbit for 3 hours; type: functional

SMILES | IOP lowering (Oryctolagus cuniculus [1]) [mmHg] | IOP lowering (Oryctolagus cuniculus [2]) [mmHg]
NS(=O)(=O)c1ccc(CCNC(=O)c2ccc(S(N)(=O)=O)cc2)cc1 | 9.5 | –
CCN[C@H]1C[C@H](C)S(=O)(=O)c2sc(S(N)(=O)=O)cc21 [DORZOLAMIDE] | – | 3.6
